In PubChem BioAssay (NCI):
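Five compound concentrations were applied to cells in 96-well plates for 48 hours; endpoints were derived by simple linear interpolation of the resulting dose-response curve. TGI denotes the concentration required for complete inhibition of growth.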

Tests used:
Test in all cases: growth of human tumour cells (NCI), 48 h
[1] = tested on: SN12C renal
[2] = tested on: HCC-2998 colon
[3] = tested on: K-562 leukemia
[4] = tested on: NCI-H460 lung
[5] = tested on: HCT-15 colon
[6] = tested on: SNB-19 CNS
[7] = tested on: SF-539 CNS
[8] = tested on: HCT-116 colon
[9] = tested on: OVCAR-5 ovarian
[10] = tested on: UO-31 renal
[11] = tested on: TK-10 renal
[12] = tested on: DU-145 prostate
[13] = tested on: MDA-MB-231 breast
[14] = tested on: SK-OV-3 ovarian
[15] = tested on: OVCAR-3 ovarian
[16] = tested on: ACHN renal
[17] = tested on: COLO 205 colon
[18] = tested on: NCI/ADR-RES ovarian
[19] = tested on: SF-295 CNS
[20] = tested on: M14 melanoma
[21] = tested on: A498 renal
[22] = tested on: NCI-H522 lung
[23] = tested on: SK-MEL-5 melanoma
[24] = tested on: MDA-N
[25] = tested on: MCF7 breast
[26] = tested on: UACC-62 melanoma
[27] = tested on: NCI-H23 lung
[28] = tested on: HS 578T breast
[29] = tested on: OVCAR-8 ovarian
[30] = tested on: U251 CNS
[31] = tested on: SK-MEL-28 melanoma
[32] = tested on: 786-0 renal
[33] = tested on: HOP-62 NSCLC
[34] = tested on: SW-620 colon
[35] = tested on: SNB-75 CNS
[36] = tested on: BT-549 breast
[37] = tested on: SK-MEL-2 melanoma
[38] = tested on: CAKI-1 renal
[39] = tested on: MOLT-4 leukemia
[40] = tested on: OVCAR-4 ovarian
[41] = tested on: NCI-H226 lung
[42] = tested on: A549 NSCLC
[43] = tested on: EKVX NSCLC
[44] = tested on: PC-3 prostate
[45] = tested on: CCRF-CEM leukemia
[46] = tested on: HT29 colon
[47] = tested on: SR leukemia
[48] = tested on: HL-60(TB) leukemia
[49] = tested on: SF-268 CNS
[50] = tested on: UACC-257 melanoma
[51] = tested on: IGROV1 ovarian
[52] = tested on: KM12 colon
[53] = tested on: T-47D breast

Measured: TGI

COCCNc1cncc(C(N)=O)c1
> 100 µM: [1] | [2] | [3] | [4] | [5] | [6] | [7] | [8] | [9] | [10] | [11] | [12] | [13] | [14] | [15] | [16] | [17] | [18] | [19] | [20] | [21] | [22] | [23] | [24] | [25] | [26] | [27] | [28] | [29] | [30] | [31] | [32] | [33] | [34] | [35] | [36] | [37] | [38] | [39] | [40] | [41] | [42] | [43] | [44] | [45] | [46] | [47] | [48] | [49] | [50] | [51] | [52] | [53]
